Source: patent US20230146675A1, “PYRIMIDO[5,4-d]PYRIMIDINE DERIVATIVES AS ENT INHIBITORS FOR THE TREATMENT OF CANCERS, AND COMBINATION THEREOF WITH ADENOSINE RECEPTOR ANTAGONISTS” (ITEOS BELGIUM SA, priority 2020, published 2023)

Biological target: T1, human ENT1 (Homo sapiens, UniProt Q99808)
T1 sequence (Q99808 1-456): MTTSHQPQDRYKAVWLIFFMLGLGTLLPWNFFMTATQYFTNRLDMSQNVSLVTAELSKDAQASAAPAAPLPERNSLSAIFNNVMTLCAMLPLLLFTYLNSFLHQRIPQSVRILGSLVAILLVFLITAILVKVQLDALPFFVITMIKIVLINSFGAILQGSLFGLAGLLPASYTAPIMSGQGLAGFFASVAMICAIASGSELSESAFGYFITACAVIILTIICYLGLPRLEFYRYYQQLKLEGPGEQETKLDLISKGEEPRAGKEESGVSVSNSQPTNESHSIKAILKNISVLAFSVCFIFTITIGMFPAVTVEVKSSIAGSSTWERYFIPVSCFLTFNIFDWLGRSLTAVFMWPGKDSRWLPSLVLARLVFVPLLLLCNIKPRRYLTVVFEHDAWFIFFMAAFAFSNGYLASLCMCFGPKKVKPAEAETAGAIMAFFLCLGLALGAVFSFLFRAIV
Assay: ENT1 binding assay (competition with Sahenta-DY647 on JAR cells)
Set-up: JAR cells expressing ENT1 were bought from ATCC; host or cells: JAR cells
Settings: binned IC50
Summary of the method: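 JAR cells were incubated with test compounds and the fluorescent ligand Sahenta-DY647 in competition. Plates were washed twice by centrifugation (4 min, 400 rcf, 4 °C). Binding potency was derived from the final fluorescence.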

**Q.** Which IC50 does the source give for `COCCN(CCOC)c1nc(N2CCC(OC)CC2)c2nc(N(CCOC)CCOC)nc(N(C)CCc3ccccn3)c2n1` [Compound 83, N2,N2,N6,N6-tetrakis(2-methoxyethyl)-8-(4-methoxypiperidin-1-yl)-N4-methyl-N4-(2-(pyridin-2-yl)ethyl)pyrimido[5,4-d]pyrimidine-2,4,6-triamine] here?
**A.** 500 to 1000 nM

**Q.** Which IC50 does the source give for `COCCN(CCOC)c1nc(N2CCC(OC)CC2)c2nc(N(CCOC)CCOC)nc(NCc3cnccn3)c2n1` [Compound 84, N2,N2,N6,N6-tetrakis(2-methoxyethyl)-8-(4-methoxypiperidin-1-yl)-N4-(pyrazin-2-ylmethyl)pyrimido[5,4-d]pyrimidine-2,4,6-triamine] here?
**A.** 500 to 1000 nM

**Q.** Which IC50 does the source give for `CCN(CC)c1nc(N(CCOC)CCOC)nc2c(N3CCC(OC)CC3)nc(N(CCOC)CCOC)nc12` [Compound 85, N4,N4-diethyl-N2,N2,N6,N6-tetrakis(2-methoxyethyl)-8-(4-methoxypiperidin-1-yl)pyrimido[5,4-d]pyrimidine-2,4,6-triamine] here?
**A.** < 100 nM

**Q.** Which IC50 does the source give for `COCCN(CCOC)c1nc(N2CC(OC)C2)c2nc(N(CCOC)CCOC)nc(N3CCC(OC)CC3)c2n1` [Compound 86, 4-(3-methoxyazetidin-1-yl)-N2,N2,N6,N6-tetrakis(2-methoxyethyl)-8-(4-methoxypiperidin-1-yl)pyrimido[5,4-d]pyrimidine-2,6-diamine] here?
**A.** 100 to 500 nM

**Q.** `COCCN(CCOC)c1nc(N2CCOC(C)C2)c2nc(N(CCOC)CCOC)nc(N3CCC(OC)CC3)c2n1` (stereo not drawn) [Compound 87, N2,N2,N6,N6-tetrakis(2-methoxyethyl)-4-(4-methoxypiperidin-1-yl)-8-(2-methylmorpholino)pyrimido[5,4-d]pyrimidine-2,6-diamine] was tested. Which IC50 did it give?
**A.** 100 to 500 nM

**Q.** `COCCN(CCOC)c1nc(N2CCC(OC)CC2)c2nc(N(CCOC)CCOC)nc(N3CCC(NC(C)=O)CC3)c2n1` [Compound 88, N-(1-(2,6-bis(bis(2-methoxyethyl)amino)-8-(4-methoxypiperidin-1-yl)pyrimido[5,4-d]pyrimidin-4-yl)piperidin-4-yl)acetamide] was tested. Which IC50 did it give?
**A.** 500 to 1000 nM

**Q.** How did the IC50 turn out when `COCCN(CCOC)c1nc(N2CCC(OC)CC2)c2nc(N(CCOC)CCOC)nc(N3CCCC3)c2n1` [Compound 89, N2,N2,N6,N6-tetrakis(2-methoxyethyl)-4-(4-methoxypiperidin-1-yl)-8-(pyrrolidin-1-yl)pyrimido[5,4-d]pyrimidine-2,6-diamine] was run?
**A.** 100 to 500 nM

**Q.** With `COCCN(CCOC)c1nc(N2CCC(OC)CC2)c2nc(N(CCOC)CCOC)nc(N3CCC(C#N)CC3)c2n1` [Compound 90, 1-(2,6-bis(bis(2-methoxyethyl)amino)-8-(4-methoxypiperidin-1-yl)pyrimido[5,4-d]pyrimidin-4-yl)piperidine-4-carbonitrile] as the compound, how does the IC50 read?
**A.** 100 to 500 nM

**Q.** Which IC50 does the source give for `COCCN(CCOC)c1nc(N2CCC(C)C2)c2nc(N(CCOC)CCOC)nc(N3CCC(OC)CC3)c2n1` (stereo not drawn) [Compound 91, N2,N2,N6,N6-tetrakis(2-methoxyethyl)-4-(4-methoxypiperidin-1-yl)-8-(3-methylpyrrolidin-1-yl)pyrimido[5,4-d]pyrimidine-2,6-diamine] here?
**A.** 100 to 500 nM

**Q.** With `COCCN(CCOC)c1nc(N2CC(CO)C2)c2nc(N(CCOC)CCOC)nc(N3CCC(OC)CC3)c2n1` [Compound 92, (1-(2,6-bis(bis(2-methoxyethyl)amino)-8-(4-methoxypiperidin-1-yl)pyrimido[5,4-d]pyrimidin-4-yl)azetidin-3-yl)methanol] as the compound, how does the IC50 read?
**A.** 100 to 500 nM

**Q.** Which IC50 does the source give for `COCCN(CCOC)c1nc(N2CC[C@@H](O)C2)c2nc(N(CCOC)CCOC)nc(N3CCC(OC)CC3)c2n1` [Compound 93, (R)-1-(2,6-bis(bis(2-methoxyethyl)amino)-8-(4-methoxypiperidin-1-yl)pyrimido[5,4-d]pyrimidin-4-yl)pyrrolidin-3-ol] here?
**A.** 500 to 1000 nM

**Q.** With `COCCN(CCOC)c1nc(N2CCC(O)C2)c2nc(N(CCOC)CCOC)nc(N3CCC(OC)CC3)c2n1` (stereo not drawn) [Compound 94, 1-(2,6-bis(bis(2-methoxyethyl)amino)-8-(4-methoxypiperidin-1-yl)pyrimido[5,4-d]pyrimidin-4-yl)pyrrolidin-3-ol] as the compound, how does the IC50 read?
**A.** 500 to 1000 nM

**Q.** Which IC50 does the source give for `COCCN(CCOC)c1nc(N2CCC(OC)CC2)c2nc(N(CCOC)CCOC)nc(NCCc3cnc[nH]3)c2n1` [Compound 95, N4-(2-(1H-imidazol-5-yl)ethyl)-N2,N2,N6,N6-tetrakis(2-methoxyethyl)-8-(4-methoxypiperidin-1-yl)pyrimido[5,4-d]pyrimidine-2,4,6-triamine] here?
**A.** 500 to 1000 nM

**Q.** For `COCCN(CCOC)c1nc(N2CCCC(OC)C2)c2nc(N(CCOC)CCOC)nc(N3CCC(OC)CC3)c2n1` (stereo not drawn) [Compound 96, N2,N2,N6,N6-tetrakis(2-methoxyethyl)-4-(3-methoxypiperidin-1-yl)-8-(4-methoxypiperidin-1-yl)pyrimido[5,4-d]pyrimidine-2,6-diamine], which IC50 is on record?
**A.** 100 to 500 nM

**Q.** `COCCN(CCOC)c1nc(N2CCCN(C(C)=O)CC2)c2nc(N(CCOC)CCOC)nc(N3CCC(OC)CC3)c2n1` [Compound 98, 1-(4-(2,6-bis(bis(2-methoxyethyl)amino)-8-(4-methoxypiperidin-1-yl)pyrimido[5,4-d]pyrimidin-4-yl)-1,4-diazepan-1-yl)ethanone] was tested. Which IC50 did it give?
**A.** 100 to 500 nM

**Q.** With `COCCN(CCOC)c1nc(N2CC(F)C2)c2nc(N(CCOC)CCOC)nc(N3CCC(OC)CC3)c2n1` [Compound 99, 4-(3-fluoroazetidin-1-yl)-N2,N2,N6,N6-tetrakis(2-methoxyethyl)-8-(4-methoxypiperidin-1-yl)pyrimido[5,4-d]pyrimidine-2,6-diamine] as the compound, how does the IC50 read?
**A.** 100 to 500 nM

**Q.** With `COCCN(CCOC)c1nc(N2CC(C)(C)C2)c2nc(N(CCOC)CCOC)nc(N3CCC(OC)CC3)c2n1` [Compound 100, 4-(3,3-dimethylazetidin-1-yl)-N2,N2,N6,N6-tetrakis(2-methoxyethyl)-8-(4-methoxypiperidin-1-yl)pyrimido[5,4-d]pyrimidine-2,6-diamine] as the compound, how does the IC50 read?
**A.** 100 to 500 nM

**Q.** Which IC50 does the source give for `COCCN(CCOC)c1nc(N2CC(C)(O)C2)c2nc(N(CCOC)CCOC)nc(N3CCC(OC)CC3)c2n1` [Compound 101, 1-(2,6-bis(bis(2-methoxyethyl)amino)-8-(4-methoxypiperidin-1-yl)pyrimido[5,4-d]pyrimidin-4-yl)-3-methylazetidin-3-ol] here?
**A.** 500 to 1000 nM

**Q.** How did the IC50 turn out when `COCCN(CCOC)c1nc(N2CC[C@H](F)C2)c2nc(N(CCOC)CCOC)nc(N3CCC(OC)CC3)c2n1` [Compound 102, (S)-4-(3-fluoropyrrolidin-1-yl)-N2,N2,N6,N6-tetrakis(2-methoxyethyl)-8-(4-methoxypiperidin-1-yl)pyrimido[5,4-d]pyrimidine-2,6-diamine] was run?
**A.** < 100 nM

**Q.** How did the IC50 turn out when `COCCN(CCOC)c1nc(N2CC[C@@H](F)C2)c2nc(N(CCOC)CCOC)nc(N3CCC(OC)CC3)c2n1` [Compound 103, (R)-4-(3-fluoropyrrolidin-1-yl)-N2,N2,N6,N6-tetrakis(2-methoxyethyl)-8-(4-methoxypiperidin-1-yl)pyrimido[5,4-d]pyrimidine-2,6-diamine] was run?
**A.** 100 to 500 nM

**Q.** How did the IC50 turn out when `COCCN(CCOC)c1nc(N2CCC(F)C2)c2nc(N(CCOC)CCOC)nc(N3CCC(OC)CC3)c2n1` (stereo not drawn) [Compound 104, 4-(3-fluoropyrrolidin-1-yl)-N2,N2,N6,N6-tetrakis(2-methoxyethyl)-8-(4-methoxypiperidin-1-yl)pyrimido[5,4-d]pyrimidine-2,6-diamine] was run?
**A.** 100 to 500 nM

**Q.** How did the IC50 turn out when `COCCN(CCOC)c1nc(N2CC(F)(F)C2)c2nc(N(CCOC)CCOC)nc(N3CCC(OC)CC3)c2n1` [Compound 105, 4-(3,3-difluoroazetidin-1-yl)-N2,N2,N6,N6-tetrakis(2-methoxyethyl)-8-(4-methoxypiperidin-1-yl)pyrimido[5,4-d]pyrimidine-2,6-diamine] was run?
**A.** 100 to 500 nM

**Q.** For `COCCN(CCOC)c1nc(N2CC[C@H](OC)C2)c2nc(N(CCOC)CCOC)nc(N3CCC(OC)CC3)c2n1` [Compound 106, (S)-N2,N2,N6,N6-tetrakis(2-methoxyethyl)-4-(4-methoxypiperidin-1-yl)-8-(3-methoxypyrrolidin-1-yl)pyrimido[5,4-d]pyrimidine-2,6-diamine], which IC50 is on record?
**A.** 100 to 500 nM

**Q.** With `COCCN(CCOC)c1nc(N2CC[C@@H](OC)C2)c2nc(N(CCOC)CCOC)nc(N3CCC(OC)CC3)c2n1` [Compound 107, (R)-N2,N2,N6,N6-tetrakis(2-methoxyethyl)-4-(4-methoxypiperidin-1-yl)-8-(3-methoxypyrrolidin-1-yl)pyrimido[5,4-d]pyrimidine-2,6-diamine] as the compound, how does the IC50 read?
**A.** 100 to 500 nM

**Q.** For `COCCN(CCOC)c1nc(N2CCC(OC)CC2)c2nc(N(CCOC)CCOC)nc(N3CCC(F)CC3)c2n1` [Compound 108, 4-(4-fluoropiperidin-1-yl)-N2,N2,N6,N6-tetrakis(2-methoxyethyl)-8-(4-methoxypiperidin-1-yl)pyrimido[5,4-d]pyrimidine-2,6-diamine], which IC50 is on record?
**A.** < 100 nM

**Q.** Which IC50 does the source give for `COCCN(CCOC)c1nc(N2CCC(F)(F)C2)c2nc(N(CCOC)CCOC)nc(N3CCC(OC)CC3)c2n1` [Compound 109, 4-(3,3-difluoropyrrolidin-1-yl)-N2,N2,N6,N6-tetrakis(2-methoxyethyl)-8-(4-methoxypiperidin-1-yl)pyrimido[5,4-d]pyrimidine-2,6-diamine] here?
**A.** 100 to 500 nM

**Q.** With `COCCN(CCOC)c1nc(N2C[C@@H](C)O[C@@H](C)C2)c2nc(N(CCOC)CCOC)nc(N3CCC(OC)CC3)c2n1` [Compound 110, 4-((2R,6S)-2,6-dimethylmorpholino)-N2,N2,N6,N6-tetrakis(2-methoxyethyl)-8-(4-methoxypiperidin-1-yl)pyrimido[5,4-d]pyrimidine-2,6-diamine] as the compound, how does the IC50 read?
**A.** < 100 nM
